{"source": "ChEMBL document CHEMBL4354805", "about": "“Discovery of MK-8719, a Potent O-GlcNAcase Inhibitor as a Potential Treatment for Tauopathies” (J Med Chem, 2019)", "key": {"Protein O-GlcNAcase": {"target": "T1, Protein O-GlcNAcase (Rattus norvegicus, UniProt Q8VIJ5)", "T1 sequence (Q8VIJ5 whole entry)": "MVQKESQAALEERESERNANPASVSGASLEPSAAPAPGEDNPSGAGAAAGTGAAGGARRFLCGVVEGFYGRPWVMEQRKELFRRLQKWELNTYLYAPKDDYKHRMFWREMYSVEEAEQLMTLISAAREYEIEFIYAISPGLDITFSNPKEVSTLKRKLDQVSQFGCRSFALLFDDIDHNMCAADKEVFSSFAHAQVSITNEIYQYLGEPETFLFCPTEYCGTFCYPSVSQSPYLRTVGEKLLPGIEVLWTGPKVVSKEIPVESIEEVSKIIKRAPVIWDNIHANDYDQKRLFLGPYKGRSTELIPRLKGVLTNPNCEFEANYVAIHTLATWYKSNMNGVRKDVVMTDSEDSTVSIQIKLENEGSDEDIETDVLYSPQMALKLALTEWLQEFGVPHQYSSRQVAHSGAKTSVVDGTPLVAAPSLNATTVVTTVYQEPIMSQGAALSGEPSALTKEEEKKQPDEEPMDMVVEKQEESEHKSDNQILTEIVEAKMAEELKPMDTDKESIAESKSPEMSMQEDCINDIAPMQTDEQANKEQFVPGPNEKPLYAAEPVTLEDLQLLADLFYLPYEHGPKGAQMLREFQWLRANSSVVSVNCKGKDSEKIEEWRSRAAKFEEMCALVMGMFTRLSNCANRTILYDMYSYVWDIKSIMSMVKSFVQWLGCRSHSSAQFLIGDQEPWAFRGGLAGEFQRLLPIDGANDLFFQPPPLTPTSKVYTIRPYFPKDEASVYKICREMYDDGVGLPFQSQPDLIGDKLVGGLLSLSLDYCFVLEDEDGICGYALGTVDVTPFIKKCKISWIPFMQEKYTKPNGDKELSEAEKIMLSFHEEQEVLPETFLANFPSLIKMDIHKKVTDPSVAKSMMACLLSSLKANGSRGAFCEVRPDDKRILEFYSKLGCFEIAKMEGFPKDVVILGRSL", "assay": "Inhibition of OGA in rat PC12 cells assessed as OGlcNAcylated protein level incubated for 24 hrs by ELISA", "assay_type": "cell-based"}, "[1]": {"assay": "Drug uptake in rat brain at 3 mg/kg, po measured after 8 hrs", "assay_type": "ADME, organism-based", "settings": "in vivo; call rule not given here"}, "[2]": {"assay": "Half life in Beagle dog at 1 mg/kg, iv", "assay_type": "ADME, organism-based, Canis lupus familiaris", "settings": "in vivo"}, "[3]": {"assay": "Protein binding in dog plasma", "assay_type": "ADME, cell-free, Canis lupus familiaris", "settings": "read-out: PPB"}, "Canis familiaris": {"test_system": "Canis familiaris", "assay": "Hemodynamic activity in telemetered dog assessed as change in EKG parameter at 300 mg/kg, po", "assay_type": "ADME, organism-based, Canis lupus familiaris", "settings": "in vivo"}, "Rattus norvegicus [4]": {"test_system": "Rattus norvegicus", "assay": "Elevation of O-protein in rat brain at 3 mg/kg, po measured after 24 hrs relative to control", "assay_type": "functional"}, "[5]": {"assay": "Protein binding in monkey plasma", "assay_type": "ADME, cell-free, Macaca mulatta", "settings": "rhesus monkey, read-out: PPB"}, "[6]": {"assay": "Ratio of drug level in human blood to plasma", "assay_type": "ADME, cell-free", "settings": "whole blood"}, "[7]": {"assay": "Fraction unbound in rhesus monkey plasma at 1 uM by equilibrium dialysis", "assay_type": "ADME, cell-free, Macaca mulatta"}, "[8]": {"assay": "Ratio of drug level in rat blood to plasma", "assay_type": "ADME, cell-free", "settings": "whole blood"}, "Nav1.5": {"target": "Nav1.5 (Homo sapiens, UniProt Q14524)", "sequence (Q14524 whole entry)": "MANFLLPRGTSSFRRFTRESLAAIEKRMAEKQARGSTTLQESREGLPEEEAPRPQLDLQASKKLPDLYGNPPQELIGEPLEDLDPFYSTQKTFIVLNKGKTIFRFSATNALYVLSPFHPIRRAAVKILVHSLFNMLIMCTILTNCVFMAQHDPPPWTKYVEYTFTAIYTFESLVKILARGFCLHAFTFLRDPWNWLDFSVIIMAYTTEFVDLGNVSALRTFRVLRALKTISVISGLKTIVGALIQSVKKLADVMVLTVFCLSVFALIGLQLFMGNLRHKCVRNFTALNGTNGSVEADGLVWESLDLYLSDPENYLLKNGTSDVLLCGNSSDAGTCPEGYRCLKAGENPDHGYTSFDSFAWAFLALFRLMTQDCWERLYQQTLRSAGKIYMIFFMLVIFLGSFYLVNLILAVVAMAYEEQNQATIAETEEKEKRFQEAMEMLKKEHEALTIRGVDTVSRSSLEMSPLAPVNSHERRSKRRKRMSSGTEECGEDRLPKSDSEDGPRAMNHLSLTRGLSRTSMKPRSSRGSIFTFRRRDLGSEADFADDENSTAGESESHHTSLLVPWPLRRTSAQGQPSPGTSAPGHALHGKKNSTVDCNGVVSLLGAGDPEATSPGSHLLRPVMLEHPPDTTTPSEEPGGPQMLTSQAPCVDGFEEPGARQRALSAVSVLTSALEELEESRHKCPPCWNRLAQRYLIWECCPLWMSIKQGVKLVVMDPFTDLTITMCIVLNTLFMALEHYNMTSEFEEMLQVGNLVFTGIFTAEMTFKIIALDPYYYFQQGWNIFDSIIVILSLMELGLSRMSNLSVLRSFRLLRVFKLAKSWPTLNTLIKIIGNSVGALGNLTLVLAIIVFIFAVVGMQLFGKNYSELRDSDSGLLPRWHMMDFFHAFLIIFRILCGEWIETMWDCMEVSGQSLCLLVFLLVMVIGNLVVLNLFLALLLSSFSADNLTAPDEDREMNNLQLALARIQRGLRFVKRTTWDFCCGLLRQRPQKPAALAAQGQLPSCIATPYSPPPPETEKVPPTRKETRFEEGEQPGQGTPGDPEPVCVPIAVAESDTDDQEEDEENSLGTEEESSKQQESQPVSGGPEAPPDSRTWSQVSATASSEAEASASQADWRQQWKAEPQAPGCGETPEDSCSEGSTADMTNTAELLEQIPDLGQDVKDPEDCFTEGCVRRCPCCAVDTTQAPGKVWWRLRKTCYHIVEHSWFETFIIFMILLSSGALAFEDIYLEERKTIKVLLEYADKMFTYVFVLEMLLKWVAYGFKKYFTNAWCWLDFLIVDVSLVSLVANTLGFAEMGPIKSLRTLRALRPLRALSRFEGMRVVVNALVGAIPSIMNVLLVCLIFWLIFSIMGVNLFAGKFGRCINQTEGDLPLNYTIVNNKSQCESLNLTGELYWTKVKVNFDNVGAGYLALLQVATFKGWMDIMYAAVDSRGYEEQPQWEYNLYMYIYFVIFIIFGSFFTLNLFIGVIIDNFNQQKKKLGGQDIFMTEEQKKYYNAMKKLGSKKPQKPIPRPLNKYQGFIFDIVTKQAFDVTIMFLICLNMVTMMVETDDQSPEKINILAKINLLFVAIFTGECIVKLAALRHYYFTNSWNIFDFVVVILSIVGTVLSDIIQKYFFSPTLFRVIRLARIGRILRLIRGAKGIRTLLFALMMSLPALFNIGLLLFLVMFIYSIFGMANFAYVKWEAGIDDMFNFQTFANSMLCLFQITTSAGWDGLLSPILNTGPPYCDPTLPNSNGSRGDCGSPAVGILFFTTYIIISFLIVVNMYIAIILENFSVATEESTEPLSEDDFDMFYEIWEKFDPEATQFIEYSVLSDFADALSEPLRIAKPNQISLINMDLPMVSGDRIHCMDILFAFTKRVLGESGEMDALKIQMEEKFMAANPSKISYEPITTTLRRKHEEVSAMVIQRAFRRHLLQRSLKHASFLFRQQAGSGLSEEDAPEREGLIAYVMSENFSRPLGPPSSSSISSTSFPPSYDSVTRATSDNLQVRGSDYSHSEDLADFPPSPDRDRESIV", "assay": "Inhibition of Nav1.5 (unknown origin) at 30 uM"}, "Cytochrome P450 1A2": {"target": "T2, Cytochrome P450 1A2 (Homo sapiens, UniProt P05177)", "T2 sequence (P05177 whole entry)": "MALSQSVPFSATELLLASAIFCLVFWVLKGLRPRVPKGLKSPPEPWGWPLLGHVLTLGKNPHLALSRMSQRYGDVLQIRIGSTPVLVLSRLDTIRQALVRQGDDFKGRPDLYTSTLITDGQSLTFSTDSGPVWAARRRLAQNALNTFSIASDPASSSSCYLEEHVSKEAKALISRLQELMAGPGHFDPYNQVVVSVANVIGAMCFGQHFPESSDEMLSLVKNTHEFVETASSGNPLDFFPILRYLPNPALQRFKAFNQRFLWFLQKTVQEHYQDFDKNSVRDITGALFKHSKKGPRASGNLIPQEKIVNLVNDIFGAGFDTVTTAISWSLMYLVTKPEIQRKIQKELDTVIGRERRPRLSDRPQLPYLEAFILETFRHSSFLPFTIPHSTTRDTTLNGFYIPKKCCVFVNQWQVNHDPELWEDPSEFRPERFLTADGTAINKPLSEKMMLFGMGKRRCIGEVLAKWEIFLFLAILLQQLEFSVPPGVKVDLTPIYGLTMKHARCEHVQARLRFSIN", "assay": "Induction of CYP1A2 in human hepatocytes upto 20 uM", "assay_type": "ADME, cell-based"}, "[9]": {"assay": "AUC (0 to 24 hrs) in rat brain at 10 mg/kg, po measured upto 24 hrs", "assay_type": "ADME, organism-based", "set-up": "dose 10 mg/kg, time < 24 hr, route oral", "settings": "in vivo"}, "Cytochrome P450 3A4": {"target": "Cytochrome P450 3A4 (Homo sapiens, UniProt P08684)", "sequence (P08684 whole entry)": "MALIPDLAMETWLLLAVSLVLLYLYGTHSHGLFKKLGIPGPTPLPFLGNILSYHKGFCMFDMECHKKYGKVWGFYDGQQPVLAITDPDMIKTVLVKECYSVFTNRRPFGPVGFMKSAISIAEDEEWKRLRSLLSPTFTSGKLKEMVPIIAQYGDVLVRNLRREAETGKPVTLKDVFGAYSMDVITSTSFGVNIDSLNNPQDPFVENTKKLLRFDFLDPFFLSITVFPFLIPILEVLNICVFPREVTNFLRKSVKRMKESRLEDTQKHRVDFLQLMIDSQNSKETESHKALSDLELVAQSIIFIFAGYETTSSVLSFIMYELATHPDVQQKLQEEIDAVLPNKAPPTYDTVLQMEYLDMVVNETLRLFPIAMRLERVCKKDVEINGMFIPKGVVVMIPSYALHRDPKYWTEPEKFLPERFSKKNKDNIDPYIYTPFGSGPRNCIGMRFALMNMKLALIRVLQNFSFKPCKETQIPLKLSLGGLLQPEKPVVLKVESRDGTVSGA", "assay": "Induction of CYP3A4 in human hepatocytes upto 20 uM", "assay_type": "ADME, cell-based"}, "Rattus norvegicus [10]": {"test_system": "Rattus norvegicus", "assay": "Elevation of O-protein in rat brain at 10 mg/kg, po measured after 24 hrs", "assay_type": "functional"}, "[11]": {"assay": "Fraction unbound in Wistar Han rat plasma at 2.5 uM by equilibrium dialysis", "assay_type": "ADME, cell-free"}, "[12]": {"assay": "Cmax in rat assessed as change in histomorphology at 1000 mg/kg, po administered for 7 days and measured on day 8", "assay_type": "ADME, organism-based", "set-up": "dose 1000 mg/kg, route oral", "settings": "in vivo"}, "[13]": {"assay": "Half life in Wistar Han rat at 2 mg/kg, iv", "assay_type": "ADME, organism-based", "settings": "in vivo"}, "[14]": {"assay": "Ratio of drug level in monkey blood to plasma", "assay_type": "ADME, cell-free, Macaca mulatta", "settings": "rhesus monkey, whole blood"}}, "data": [{"smiles": "CCNC1=N[C@@H]2[C@@H](O)[C@H](O)[C@@H](C(F)F)O[C@@H]2S1", "values": [{"measurement": "EC50", "setting": "Protein O-GlcNAcase", "value": 52.7, "unit": "nM"}, {"measurement": "Drug uptake", "setting": "[1]", "value": 0.219, "unit": "nmol/g"}, {"measurement": "half-life", "setting": "[2]", "value": 2.3, "unit": "h"}, {"measurement": "fraction unbound", "setting": "[3]", "value": "> 0.95"}, {"measurement": "Activity", "setting": "Canis familiaris", "value": "Non-Toxic"}, {"measurement": "fold change (FC)", "setting": "Rattus norvegicus [4]", "value": 2.17}, {"measurement": "fraction unbound", "setting": "[5]", "value": "> 0.95"}, {"measurement": "blood plasma ratio", "setting": "[6]", "value": "0.9 to 1.1"}, {"measurement": "fraction unbound at 1 µM", "setting": "[7]", "value": "> 0.99"}, {"measurement": "blood plasma ratio", "setting": "[8]", "value": "0.9 to 1.1"}, {"measurement": "inhibition at 30 µM", "setting": "Nav1.5", "value": "< 50", "unit": "%"}, {"measurement": "Activity", "setting": "Cytochrome P450 1A2", "value": "Not Active"}, {"measurement": "AUC", "setting": "[9]", "value": 9.64, "unit": "nM·h/g"}, {"measurement": "Activity", "setting": "Cytochrome P450 3A4", "value": "Not Active"}, {"measurement": "fold change (FC)", "setting": "Rattus norvegicus [10]", "value": 2.57}, {"measurement": "fraction unbound at 2.5 µM", "setting": "[11]", "value": 0.97}, {"measurement": "Cmax", "setting": "[12]", "value": 226, "unit": "µM"}, {"measurement": "half-life", "setting": "[13]", "value": 1.9, "unit": "h"}, {"measurement": "blood plasma ratio", "setting": "[14]", "value": "0.9 to 1.1"}]}]}
